Source: patent publication US20260151518A1, “LEUKOCYTE-SPECIFIC CELL PENETRATING MOLECULES” (Amytrx Therapeutics, Inc., priority 2021, published 2026)

Experiments:
[1] = Concentrations of radioactivity in whole blood, plasma, WBC depleted blood and recovered white blood cells after single subcutaneous administration of [3H]-AMTX-100; assay type: in vivo, rat; design: key to Concentration of radioactivity in Recovered White Blood Cells: BLQ: Below limit of accurate quantification; conditions: 5 mg/kg; for Concentration of radioactivity in WBC depleted blood / Concentration of radioactivity in Whole Blood / Concentration of radioactivity in Plasma / Concentration of radioactivity in Recovered White Blood Cells: rat; for Concentration of radioactivity in Plasma: plasma not depleted of white blood cells; for Concentration of radioactivity in Recovered White Blood Cells: reverse wash of filters; for Cmax, total radioactivity: male non-pigmented rats
Method: [^3H]-NSP labelling. For the main phase of the study, the test protein was prepared, radiolabeled with N-succinimidyl-[2,3-3H]-propionate ([^3H]-NSP) and purified as described below.
Three aliquots of 1.6 mL [^3H]-NSP solution were dispensed into appropriate vials. The solvent was evaporated under a gentle stream of nitrogen gas at ambient temperature. Once enough of the solvent had been evaporated, the three aliquots were combined into one vial and the remaining solvent evaporated until dryness. The residue in the vial was re-suspended in 0.6 mL of 1 mg/mL AMTX-100 by gently vortex mixing to ensure complete mixing of the protein with the labelling reagent. The solutions were allowed to stand at ambient temperature for approximately 1 hour.
The [^3H]-NSP-protein solutions were then purified by reverse phase chromatography techniques and the resulting solution was frozen and lyophilized using a freeze drier. The resulting material was dissolved in 2 mL ethanol:water (50:50) and stored at approximately −20° C. prior to formulation for dose preparation.
Formulation. The required quantities of each radiolabeled test item were combined with the corresponding non-labelled test item as appropriate to achieve a radioactive concentration sufficient to meet the aims of the study. Dose solutions were prepared in PBS buffer pH 7.4, with the intention of administering a total dose volume of […], (2.5 ml/kg, […]).
(§1) Whole blood was collected into tubes containing K2-EDTA as anticoagulant. Following collection, an aliquot of whole blood (approximately 4 mL) was retained for analysis of whole blood and white blood cell (WBC) concentrations. The remaining whole blood samples were processed to plasma. Plasma samples were not depleted of white blood cells.
(§2) AMTX-100 was radiolabeled with 3H at lysine residues and injected into Sprague-Dawley rats in a single dose by seven different routes (intravenous, subcutaneous, topical [skin], intratracheal, intraduodenal, esophageal, and oral). The rats were evaluated at various time points, up to 120 hours, by: a) blood samples were taken for pharmacokinetics (PK) by cardiac puncture; b) rats were frozen and sectioned for QWBA and/or micro-auto-radiography and histology; and c) frozen sections were made and freeze dried and exposed to phosphor-storage imaging plates and tissue radioactivity in images was quantified as tissue: blood ratios.
(§3) For all PK studies, the following definitions were used: WB=whole blood; Plasma=whole blood depleted of red blood cells; WBCD=whole blood depleted of white blood cells in which the whole blood is passed over a Pall Acrodisc filter (about 60% efficient); WBCs=the cells which bind to, and are washed off, the Pall Acrodisc filter.

[2] = Blood partition calculation after single administration of [3H]-AMTX-100; assay type: in vivo; design: Partition coefficient / Non-plasma compartment: unit not given here; conditions: single intravenous (title), 5 mg/kg, rat
Method: Eight male Sprague Dawley rats each received a single IV administration of [^3H]-AMTX-100 and a terminal sample of whole blood (each approximately 5-10 mL) was collected via cardiac puncture under isofluorane anesthesia from a single rat at the following time points: […]
as §1

[3] = Pharmacokinetics of [3H]-AMTX-100 after multiple routes of administration; assay type: in vivo, rat; conditions: rat
Method: as §2, §3

CSCC[C@@H]1NC(=O)[C@H](CC(C)C)NC(=O)[C@H](CCCCN)NC(=O)[C@H](CCC(N)=O)CC(=O)[C@H](CCCNC(=N)N)NC(=O)[C@H](CCCCN)NC(=O)[C@H](CCCNC(=N)N)NC(=O)[C@H](CCC(N)=O)NC(=O)[C@H](C(C)C)NC(=O)[C@@H](NC(=O)[C@@H]2CCCN2C(=O)[C@H](C)NC(=O)[C@H](CC(C)C)NC(=O)[C@H](CC(C)C)NC(=O)[C@H](C)NC(=O)[C@H](CC(C)C)NC(=O)[C@H](CC(C)C)NC(=O)[C@@H](NC(=O)[C@H](C)NC(=O)[C@@H]2CCCN2C(=O)[C@H](CC(C)C)NC(=O)[C@H](CC(C)C)NC(=O)[C@H](C)NC(=O)[C@@H](NC(=O)[C@H](C)NC(=O)[C@H](C)N)C(C)C)C(C)C)CSSC[C@@H](C(=O)O)NC(=O)[C@@H]2CCCN2C1=O [[^3H]-AMTX-100]
Concentration of radioactivity in WBC depleted blood ([1]; 1 h): 0.015 μg equivalents/mL
Concentration of radioactivity in Whole Blood ([1]; 1 h): 0.081 μg equivalents/mL
Concentration of radioactivity in Plasma ([1]; 1 h): 0.110 μg equivalents/mL
Concentration of radioactivity in Recovered White Blood Cells ([1]; 1 h): BLQ
Concentration of radioactivity in WBC depleted blood ([1]; 2 h): 0.011 μg equivalents/mL
Concentration of radioactivity in Whole Blood ([1]; 2 h): 0.059^3 μg equivalents/mL
Concentration of radioactivity in Plasma ([1]; 2 h): 0.084 μg equivalents/mL
Concentration of radioactivity in Recovered White Blood Cells ([1]; 2 h): BLQ
Concentration of radioactivity in WBC depleted blood ([1]; 4 h): 0.011 μg equivalents/mL
Concentration of radioactivity in Whole Blood ([1]; 4 h): 0.054 μg equivalents/mL
Concentration of radioactivity in Plasma ([1]; 4 h): 0.068 μg equivalents/mL
Concentration of radioactivity in Recovered White Blood Cells ([1]; 4 h): BLQ
Concentration of radioactivity in WBC depleted blood ([1]; 8 h): 0.011 μg equivalents/mL
Concentration of radioactivity in Whole Blood ([1]; 8 h): 0.070 μg equivalents/mL
Concentration of radioactivity in Plasma ([1]; 8 h): 0.090 μg equivalents/mL
Concentration of radioactivity in Recovered White Blood Cells ([1]; 8 h): BLQ
Concentration of radioactivity in WBC depleted blood ([1]; 24 h): 0.021 μg equivalents/mL
Concentration of radioactivity in Whole Blood ([1]; 24 h): 0.120 μg equivalents/mL
Concentration of radioactivity in Plasma ([1]; 24 h): 0.146 μg equivalents/mL
Concentration of radioactivity in Recovered White Blood Cells ([1]; 24 h): BLQ
Concentration of radioactivity in WBC depleted blood ([1]; 48 h): 0.033 μg equivalents/mL
Concentration of radioactivity in Whole Blood ([1]; 48 h): 0.186 μg equivalents/mL
Concentration of radioactivity in Plasma ([1]; 48 h): 0.221 μg equivalents/mL
Concentration of radioactivity in Recovered White Blood Cells ([1]; 48 h): BLQ
Cmax, total radioactivity ([1]; Plasma): 221 ng/mL
Cmax, total radioactivity ([1]; WBCD blood): 33 ng/mL
Cmax, total radioactivity ([1]; Whole blood): 186 ng/mL
Blood ([2]; 1 h): 0.081 µg/mL
Non-plasma compartment ([2]; 1 h): 11.7
Partition coefficient ([2]; 1 h): 88.3
Plasma ([2]; 1 h): 0.110 µg/mL
Blood ([2]; 2 h): 0.059^1 μg/mL
Non-plasma compartment ([2]; 2 h): 20.3
Partition coefficient ([2]; 2 h): 79.7
Plasma ([2]; 2 h): 0.084 µg/mL
Blood ([2]; 4 h): 0.054 µg/mL
Non-plasma compartment ([2]; 4 h): 24.4
Partition coefficient ([2]; 4 h): 75.6
Plasma ([2]; 4 h): 0.068 µg/mL
Blood ([2]; 8 h): 0.070 µg/mL
Non-plasma compartment ([2]; 8 h): 22.9
Partition coefficient ([2]; 8 h): 77.1
Plasma ([2]; 8 h): 0.090 µg/mL
Blood ([2]; 24 h): 0.120 µg/mL
Non-plasma compartment ([2]; 24 h): 27.0
Partition coefficient ([2]; 24 h): 73.0
Plasma ([2]; 24 h): 0.146 µg/mL
Blood ([2]; 48 h): 0.186 µg/mL
Non-plasma compartment ([2]; 48 h): 28.7
Partition coefficient ([2]; 48 h): 71.3
Plasma ([2]; 48 h): 0.221 µg/mL
Specific target cells in blood [3]: WBCs and not RBCs are the specific target
Residence time in plasma ([3]; Sub-Q, single dose): > 672 h
Presence in tissue ([3]; after a single dose): found in tissue in which WBCs congregate, but not cardiac or skeletal muscle tissue
Entry into the bloodstream ([3]; all routes of administration): by all routes of administration makes its way into the bloodstream
Resistance to degradation ([3]; esophageal administration, L-amino acid version): resistant to degradation
